Source: ChEMBL document CHEMBL1142710, “3D-QSAR comparative molecular field analysis on opioid receptor antagonists: pooling data from different studies” (J Med Chem, 2005)
pKi: −log10 of the molar value.

How the values were obtained:
[1] = target: T1, Delta-type opioid receptor (Rattus norvegicus, UniProt P33533); assay: Binding affinity against Opioid receptor delta 1 from rat brain membranes using [3H]DADLE
Mu-type opioid receptor [2] = target: T2, Mu-type opioid receptor (Rattus norvegicus, UniProt P33535); assay: Binding affinity against Opioid receptor mu 1 from rat brain membranes using [3H]DAMGO
[3] = target: T3, Kappa-type opioid receptor (Cavia porcellus, UniProt P41144); assay: Binding affinity against Opioid receptor kappa 1 from guinea pig brain membranes using [3H]U-69593
[4] = target: T1, Delta-type opioid receptor; assay: Affinity against opioid receptor delta 1 in rat brain membranes determined in a competitive binding assay using [3H]DADLE as competitive ligand (Compound 62); format: cell membranes
Mu-type opioid receptor [5] = target: T2, Mu-type opioid receptor; assay: Affinity against opioid receptor mu 1 in rat brain membranes determined in a competitive binding assay using [3H]DAMGO as competitive ligand (Compound 62); format: cell membranes
[6] = target: T3, Kappa-type opioid receptor; assay: Affinity against opioid receptor kappa 1 in guinea pig brain membranes determined in a competitive binding assay using [3H]U-69593 as competitive ligand (Compound 62); format: cell membranes, Membrane

Row | Structure (SMILES) | pKi [1] | pKi (Mu-type opioid receptor [2]) | pKi [3] | pKi [4] | pKi (Mu-type opioid receptor [5]) | pKi [6]
1 | CC1c2c([nH]c3ccccc23)[C@H]2Oc3c(O)ccc4c3[C@@]23CCN(C)[C@H](C4)[C@H]13 (some centres undefined) | 9.15 | 6.62 | 6.90 |  |  | 
2 | CC1CN(CCCc2ccccc2)C2CC(NC(=O)CCCN(C)C)CC1(c1cccc(O)c1)C2 (centres undefined) | 5.84 | 7.24 | 7.92 |  |  | 
3 | CC1c2c([nH]c3ccccc23)[C@H]2Oc3c(O)ccc4c3[C@@]23CCN(CC2CC2)[C@H](C4)[C@H]13 (some centres undefined) | 8.64 | 7.18 | 7.44 |  |  | 
4 | CCCCCCN1CC[C@]23c4c5ccc(O)c4O[C@@H]2c2[nH]c4ccccc4c2C[C@@]3(O)[C@H]1C5 | 7.59 | 5.34 | 5.51 |  |  | 
5 | O=C(Oc1cccc2c3c([nH]c12)[C@H]1Oc2c(O)ccc4c2[C@@]12CCN(CC1CC1)[C@H](C4)[C@]2(O)C3)c1ccccc1 | 8.51 | 6.80 | 6.59 |  |  | 
6 | CCCN1CC[C@]23c4c5ccc(O)c4O[C@@H]2c2[nH]c4ccccc4c2C[C@@]3(O)[C@H]1C5 | 8.70 | 6.15 | 6.42 |  |  | 
7 | C=C(C)CN1CCC23c4c5ccc(O)c4O[C@H]2C(=O)C2(CCc4ccccc42)C[C@@]3(O)C1C5 (some centres undefined) | 7.39 | 5.70 | 6.00 |  |  | 
8 | CC(C)CCN1CC[C@]23c4c5ccc(O)c4O[C@@H]2c2[nH]c4ccccc4c2C[C@@]3(O)[C@H]1C5 | 8.42 | 5.89 | 6.17 |  |  | 
9 | C=CCN1CCC23c4c5ccc(O)c4O[C@@]2(C)c2[nH]c4ccccc4c2C[C@@]3(OCC)C1C5 (some centres undefined) | 7.97 | 6.18 | 6.12 |  |  | 
10 | CO[C@@]12CCC(=O)CC13CCN(CC1CC1)C2Cc1cccc(OCCCc2ccccc2)c13 (some centres undefined) | 5.85 | 7.36 | 6.68 |  |  | 
11 | Oc1ccc2c3c1O[C@@H]1c4[nH]c5cc(Oc6ccccc6)ccc5c4C[C@@]4(O)[C@@H](C2)N(CC2CC2)CC[C@]314 | 8.19 | 6.63 | 6.63 |  |  | 
12 | COc1cccc2c1[C@]13CCN(CC4CC4)[C@H](C2)[C@]1(OC)CCC(=O)C3 [CYPRODIME] | 6.38 | 7.97 | 6.96 |  |  | 
13 | COc1ccc2c(c1O)[C@]13CCN(CC4CC4)C(C2)[C@@H]1CC1c2ccccc2NC1C3 (some centres undefined) | 8.15 | 4.88 | 5.10 |  |  | 
14 | O=C1CC[C@@]2(OCCCc3ccccc3)C3Cc4cccc5c4C2(CCN3CC2CC2)C1O5 (some centres undefined) | 7.34 | 9.08 | 7.64 |  |  | 
15 | C=C(C)CN1CCC23c4c5ccc(O)c4O[C@H]2c2[nH]ncc2C[C@@]3(O)C1C5 (some centres undefined) | 7.40 | 6.85 | 7.42 |  |  | 
16 | C=C(C)CN1CC[C@]23c4c5ccc(O)c4O[C@@H]2c2[nH]c4ccccc4c2C[C@@]3(O)[C@H]1C5 | 8.33 | 5.10 | 5.42 | 8.33 | 5.10 | 5.42
17 | Oc1ccc2c3c1O[C@H]1c4nc(-c5ccccc5)ccc4C[C@@]4(O)C(C2)N(CC2CC2)CCC314 (some centres undefined) | 8.75 | 7.96 | 7.74 |  |  | 
18 | COc1cccc2c1C13CCN(CC4CC4)C(C2)[C@]1(OCCCc1ccccc1)CCC(=O)C3 (some centres undefined) | 7.77 | 9.47 | 8.13 |  |  | 
19 | CCCCC1c2c([nH]c3ccccc23)[C@H]2Oc3c(O)ccc4c3[C@@]23CCN(C)[C@H](C4)[C@H]13 (some centres undefined) | 7.66 | 5.96 | 6.14 |  |  | 
20 | C=C(N)NCCCC(=O)NC1CC2CC(c3cccc(O)c3)(C1)C(C)CN2CCCc1ccccc1 (centres undefined) | 5.76 | 7.06 | 7.88 |  |  | 
21 | CCCCN1CC[C@]23c4c5ccc(O)c4O[C@@H]2c2[nH]c4ccccc4c2C[C@@]3(O)[C@H]1C5 | 8.08 | 5.89 | 6.05 |  |  | 
22 | Oc1ccc2c3c1O[C@@H]1c4[nH]c5cc(-c6ccccc6)ccc5c4C[C@@]4(O)[C@@H](C2)N(CC2CC2)CC[C@]314 | 7.74 | 5.89 | 6.20 |  |  | 
23 | Oc1ccc2c3c1O[C@H]1c4nc(-c5ccccc5)ncc4C[C@@]4(O)C(C2)N(CC2CC2)CCC314 (some centres undefined) | 7.80 | 7.66 | 7.96 |  |  | 
24 | CCCCOc1cccc2c1[C@]13CCN(CC4CC4)[C@H](C2)[C@]1(OC)CCC(=O)C3 | 6.12 | 7.86 | 6.58 |  |  | 

Row | Structure (SMILES) | pKi [1] | pKi (Mu-type opioid receptor [2]) | pKi [3] | pKi [4] | pKi (Mu-type opioid receptor [5]) | pKi [6]
25 | CC(C)=CCN1CC[C@]23c4c5ccc(O)c4O[C@@H]2c2[nH]c4ccccc4c2C[C@@]3(O)[C@H]1C5 | 7.60 | 5.55 | 5.49 |  |  | 
26 | Oc1ccc2c3c1O[C@H]1c4ncncc4C[C@@]4(O)C(C2)N(CC2CC2)CCC314 (some centres undefined) | 8.46 | 8.38 | 8.20 |  |  | 
27 | CCCCOc1cccc2c1C13CCN(CC4CC4)C(C2)[C@]1(OCCCc1ccccc1)CCC(=O)C3 (some centres undefined) | 6.63 | 7.83 | 6.82 |  |  | 
28 | CN1CCC23c4c5ccc(O)c4O[C@H]2c2ncc(-c4ccc(Cl)cc4)cc2C[C@H]3C1C5 (some centres undefined) | 8.36 | 6.83 | 7.11 |  |  | 
29 | Oc1ccc2c3c1O[C@@H]1c4[nH]c5c(-c6ccccc6)cccc5c4C[C@@]4(O)[C@@H](C2)N(CC2CC2)CC[C@]314 | 8.68 | 6.91 | 6.51 |  |  | 
30 | Oc1ccc2c3c1O[C@@H]1c4[nH]c5ccc(/C=C/c6ccccn6)cc5c4C[C@@]4(O)[C@@H](C2)N(CC2CC2)CC[C@]314 | 8.43 | 7.12 | 7.70 |  |  | 
31 | O=C1CC[C@@]2(OCCCc3ccccc3)C3Cc4cccc(O)c4C2(CCN3CC2CC2)C1 (some centres undefined) | 8.30 | 9.40 | 8.23 |  |  | 
32 | O=C(Oc1ccc2c3c([nH]c2c1)[C@H]1Oc2c(O)ccc4c2[C@@]12CCN(CC1CC1)[C@H](C4)[C@]2(O)C3)c1ccccc1 | 8.17 | 6.17 | 6.33 |  |  | 
33 | Oc1ccc2c3c1O[C@H]1c4ncc(-c5ccc(Cl)cc5)cc4C[C@H]4C(C2)N(CC2CC2)CCC314 (some centres undefined) | 8.59 | 7.21 | 8.22 |  |  | 
34 | C=C(C)CN1CCC23c4c5ccc(O)c4O[C@H]2C(=O)/C(=C\c2ccccc2)C[C@@]3(O)C1C5 (some centres undefined) | 6.68 | 5.35 | 5.35 |  |  | 
35 | CCO[C@@]12Cc3c([nH]c4ccccc34)[C@]3(C)Oc4c(O)ccc5c4C31CCN(CC1CC1)[C@@H]2C5 | 9.10 | 7.41 | 7.23 |  |  | 
36 | CCN1CC[C@]23c4c5ccc(O)c4O[C@@H]2c2[nH]c4ccccc4c2C[C@@]3(O)[C@H]1C5 | 8.30 | 5.60 | 5.52 |  |  | 
37 | Cc1ncc2c(n1)[C@@H]1Oc3c(O)ccc4c3C13CCN(CC1CC1)C(C4)[C@]3(O)C2 (some centres undefined) | 7.64 | 8.22 | 7.60 |  |  | 
38 | Oc1ccc2c3c1O[C@@H]1c4[nH]c5ccc(-c6ccccc6)cc5c4C[C@@]4(O)[C@@H](C2)N(CC2CC2)CC[C@]314 | 7.80 | 6.78 | 6.45 |  |  | 
39 | C=C(N)NCCC(=O)NC1CC2CC(c3cccc(O)c3)(C1)C(C)CN2CCCc1ccccc1 (centres undefined) | 7.25 | 8.28 | 7.63 |  |  | 
40 | CN1CCC23c4c5ccc(O)c4O[C@H]2c2ncc(-c4ccccc4)cc2C[C@H]3C1C5 (some centres undefined) | 8.31 | 7.62 | 7.09 |  |  | 
41 | CN1CCC23c4c5ccc(O)c4O[C@H]2c2ncc(-c4ccccc4)cc2C[C@@]3(O)C1C5 (some centres undefined) | 8.54 | 7.59 | 6.44 |  |  | 
42 | CCCCCCOc1cccc2c1C13CCN(CC4CC4)C(C2)[C@]1(OC)CCC(=O)C3 (some centres undefined) | 5.93 | 7.35 | 6.36 |  |  | 
43 | CO[C@@]12CCC(=O)CC13CCN(CC1CC1)C2Cc1cccc(OC/C=C/c2ccccc2)c13 (some centres undefined) | 6.08 | 7.55 | 6.44 |  |  | 
44 | Cc1cc(-c2ccccc2)c2c(n1)[C@@H]1Oc3c(O)ccc4c3C13CCN(CC1CC1)C(C4)[C@]3(O)C2 (some centres undefined) | 6.90 | 6.81 | 6.17 |  |  | 
45 | O=C(Oc1ccc2[nH]c3c(c2c1)C[C@@]1(O)[C@H]2Cc4ccc(O)c5c4[C@@]1(CCN2CC1CC1)[C@@H]3O5)c1ccccc1 | 8.36 | 7.09 | 7.09 |  |  | 
46 | Oc1ccc2c3c1O[C@@H]1c4[nH]c5cccc(Oc6ccccc6)c5c4C[C@@]4(O)[C@@H](C2)N(CC2CC2)CC[C@]314 | 7.17 | 5.84 | 5.88 |  |  | 
47 | Oc1ccc2c3c1O[C@@H]1c4[nH]c5c(Oc6ccccc6)cccc5c4C[C@@]4(O)[C@@H](C2)N(CC2CC2)CC[C@]314 | 9.15 | 7.47 | 7.47 |  |  | 
